The source of these data is PMC9009886, “In vitro and in vivo Anti-leishmanial Potential of [Ag (PTA) 4 ]BF 4 and [Ag(HBPz 3 )(PPh 3 )] Silver Complexes” (Revista da Sociedade Brasileira de Medicina Tropical, 2022).

Series [1] deals with amastigote of L. (L.) amazonensis. On the set-up: method as in doi:10.1016/j.poly.2014.05.004. Conditions: cited from earlier work.
Series [2] has as its system amastigote forms of L. (V.) guyanensis in human monocytes. The series can be described thus: Assay with amastigote forms of L. (V.) guyanensis in human monocytes. The class given is cell-based, Leishmania (Viannia) guyanensis. As for the experimental part:
(§1) The assay against amastigote forms was performed using murine peritoneal macrophages and human monocytes, obtained as described for the cytotoxicity assay. The cells were incubated for 48 h in a 24 well-plate containing glass coverslips with the RPMI medium, and cell volume adjusted to 10[5] macrophages/monocyte/mL.
(§2) The adhered cells were infected with promastigote forms of Leishmania spp. and left for 2 h. The test substances were then added at the concentrations used in previous trials and exposed for 24, 48, and 72 h. Coverslips were stained using a Panoptic kit (Laborclin® - Laborclin Products for Laboratories Ltd, Pinhais, Brazil) and quantified using optical microscopy at 400 × magnification. A total of 100 cells were quantified to evaluate the number of infected and uninfected macrophages and internalized amastigotes. Three independent assays were performed on peritoneal macrophages and human monocytes.
(§3) Statistical analysis was performed using linear regression to calculate IC50 using GraphPad Prism® (GraphPad Software Inc. version 6.0, for Windows). Results are expressed as mean ± standard deviation.

The subject of series [3] is lesions caused by L. (V.) guyanensis. The series can be described thus: Topical treatment of lesions in hamsters infected with L. (V.) guyanensis. It counts as in vivo, Mesocricetus auratus. As for the experimental part: (§4) To prepare the Carbopol®-based gel, Nipagin® was mixed with distilled water until its total solubilization, and then Carpobol® was added. Then, the metal complex was added and incorporated separately in each gel, and triethonolamine was added gradually until a thick gel was obtained. Finally, the metal complexes were mixed at a concentration of 3 mg/L, a value defined for comparative purposes with the positive control of the study (Glucantime®) administered at the same concentration via the intramuscular (IM) route.
(§5) For the assays, 72 adult male aged 60-days golden hamsters (Mesocricetus auratus) that were free of pathogens and had been previously obtained from the Central Vivarium at the INPA (CEUA 060/2018) were used [Appendix C]. The animals were housed in stainless steel cages in air-conditioned rooms, with controlled light, temperature (22-25 °C), humidity (50-60%), and food and water ad libitum.
Animals were separated into six groups. Five groups were infected with 100 µL of a solution containing 10[6] promastigote/mL of Leishmania spp. The first experiment involved 36 animals infected with L. (L.) amazonensis, and the second experiment involved 36 animals infected with L. (V.) guyanensis. Animals were divided into the following groups: […]
To evaluate the course of infection, the total volume of the lesion (length, width, and height) was measured using a caliper (Zaas® Precision). […]
For parasitological studies, a sample of the tissue from the lesion region lesion in each animal was sectioned, and the fragment was printed on a glass slide and stained using the Panoptic kit (Laborclin®). The slides were evaluated using optical microscopy, 30 fields were counted, and the analysis and quantification of infected and uninfected cells and the quantity of internalized amastigote forms were performed. […] After this period, an aliquot containing the fragments was evaluated using optical microscopy for parasitological analysis. […]

In series [4] the test system is amastigote forms of L. (L.) amazonensis in human monocytes. The series can be described thus: Assay with amastigote forms of L. (L.) amazonensis in human monocytes. The class given is cell-based, Leishmania (Leishmania) amazonensis. As for the experimental part:
as §1, §2, §3

In a further series the test system is human monocytes. Briefly: Cytotoxicity (MTT) in human monocytes. To be noted: human monocytes, MTT. The class given is cell-based. The method, then:
Human monocytes were obtained after approval from the Research Ethics Committee (CEP-UFAM: 29406319.2.0000.5020) (Appendix B). Blood samples were collected from all patients. Phosphate-buffered saline (PBS) 1 x was added, and the blood/PBS was added gently on Ficoll-Histopaque (Sigma-Aldrich®) [density of 1077] and centrifuged for 30 min/200 g[7]. Peripheral blood mononuclear cells were collected, added PBS 1 x, and centrifuged for 3 min at 400 × g. The cell concentration was adjusted to 10[4] monocytes/mL[7].
(§6) The assay was performed in 96-well plates (KASVI®). The RPMI medium was added to the cells at a concentration of 10[4] cells/mL/well. The metal complexes were added at concentrations of […] in triplicate as […], and Glucantime® was used at the same concentration as the metal complexes. The negative controls used DMSO at 4 concentrations (2%, 1%, 0.50%, and 0.25%), and the RMPI medium containing the cells remained exposed to the substance for up to 24, 48, and 72 h.
(§7) After each period, a solution of [3-(4,5-dimethylthiazol-2yl) -2,5-diphenyltetrazolium] bromide (MTT) was added to the wells at (concentration of 0.5 mg/mL). The plates were incubated for 4 h at 37 °C and then subjected to spectrophotometry (Biotek®) at an absorbance of 590 nm. Three independent trials were performed with peritoneal macrophages and human monocytes.

Series [5] relates to lesions caused by L. (L.) amazonensis. Briefly: Topical treatment of lesions in hamsters infected with L. (L.) amazonensis. The class given is in vivo, Mesocricetus auratus. As for the experimental part: as §4, §5
Animals were separated into six groups. Five groups were infected with 100 µL of a solution containing 10[6] promastigote/mL of Leishmania spp. The first experiment involved 36 animals infected with L. (L.) amazonensis, and the second experiment involved 36 animals infected with L. (V.) guyanensis. Animals were divided into the following groups:
• Group I: Uninfected control • Group II: Untreated, infected control • Group III: Infected and treated with Glucantime® (IM) • Group IV: Infected and treated with Ag1 (lesions treated topically once a day) • Group V: Infected and treated with Ag2 (lesions treated topically once a day) • Group VI: Infected and treated with gel without the addition of complexes (lesions treated topically once a day)
To evaluate the course of infection, the total volume of the lesion (length, width, and height) was measured using a caliper (Zaas® Precision). Animals were weighed once per week. After 30 days of treatment, the animals were euthanized using ketamine hydrochloride (Dopalen®) combined with xylazine hydrochloride (Anasedan®) following the Animal Use Ethics Commission (CEUA) protocols (060/2018).
For parasitological studies, a sample of the tissue from the lesion region lesion in each animal was sectioned, and the fragment was printed on a glass slide and stained using the Panoptic kit (Laborclin®). The slides were evaluated using optical microscopy, 30 fields were counted, and the analysis and quantification of infected and uninfected cells and the quantity of internalized amastigote forms were performed. Fragments of each animal’s skin lesions and liver were also sectioned and cultured in an NNN medium for 7 days. After this period, an aliquot containing the fragments was evaluated using optical microscopy for parasitological analysis.
For the in vivo results, we used two-way analysis of variance to evaluate the statistical significance between the groups, followed by the Tukey test to compare the means of the groups at a 95% confidence interval.

In series [6] the test system is amastigote forms of L. (L.) amazonensis internalized in murine peritoneal macrophages. Briefly: Assay with amastigote forms of L. (L.) amazonensis in peritoneal macrophages. The class given is cell-based, Leishmania (Leishmania) amazonensis. As for the experimental part:
as §1, §2
(§8) The SI is the relationship between the cytotoxic activity of the tested compound and its anti-leishmanial activity. In our study, the SI was calculated from the ratio of cytotoxicity for macrophages/monocytes with a cytotoxic concentration at 50% (CC50) and action against amastigote forms in each of these cell types with an inhibitory concentration at 50% (IC50), using the equation: SI = CC50IC50-AMA^3
as §3

Series [7] deals with promastigote forms of Leishmania (Leishmania) amazonensis (IM5584). Briefly: Assay with promastigote forms, L. (L.) amazonensis. To be noted: L. (L.) amazonensis (IM5584), read-out: IC50 values, promastigote forms. It counts as cell-based. The method, then:
(§9) We used the species L. (Leishmania) amazonensis [L. (L.) amazonensis] (MHOM/BR/2009/IM5584) and L. (Viannia) guyanensis [L. (V.) guyanensis] (MHOM/BR/1975/M4147), which had been cultivated in the biphasic medium Novy - MacNeal - Nicolle (NNN) and amplified in the RPMI liquid medium (Himedia®). The culture was centrifuged for 15 min at 4,400 g. Parasites were adjusted to a concentration of 10[4] parasites/mL.
(§10) The parasites were used at a concentration of 10[4] parasites/mL. The assay was performed in 96-well plates (KASVI®), and then the same procedure and concentrations of the substances were used in the cytotoxicity assay, with negative control and culture medium containing parasites. The activity of the complexes was evaluated at 24, 48, and 72 h intervals using a Neubauer chamber. In addition, cellular viability was evaluated using the assay. Three independent tests were conducted.
as §3

Series [8] deals with promastigote forms of Leishmania (Viannia) guyanensis (M4147). The series can be described thus: Assay with promastigote forms, L. (V.) guyanensis. The class given is cell-based. The method, then: as §9, §10, §3
For series [9], the system named is murine peritoneal macrophages. Briefly: Cytotoxicity (MTT) in murine peritoneal macrophages. The class given is cell-based, Balb/c (Mus musculus) mice. To be noted: peritoneal macrophages, MTT. The method, then:
Peritoneal macrophages were extracted from Balb/c (Mus musculus) mice, from colonies of the Central Vivarium at the INPA, with the approval of the Ethics Committee on the Use of Animals (CEUA - INPA 023/2020; Appendix A). The animals were anesthetized with ketamine hydrochloride (Dopalen®), and a ventral incision was made. The RPMI medium was introduced; and the abdominal massage was performed for macrophage activation, followed by aspiration, and centrifuged at 1,500 g for 10 min. Cell concentration was adjusted to 10[4] macrophages/mL[6].
as §6, §7

In series [10] the test system is amastigote forms of L. (V.) guyanensis in murine peritoneal macrophages. Briefly: Assay with amastigote forms of L. (V.) guyanensis in peritoneal macrophages. It counts as cell-based, Leishmania (Viannia) guyanensis. As for the experimental part: as §1, §2, §8, §3

In brackets after ≈: the same amount, converted by molar mass. Read-outs that look alike come from different tables or passages of the source.

As to `C[C@@H]1[C@H](O)[C@@H](C)/C=C/C=C/C=C/C=C/C=C/C=C/C=C/[C@H](O[C@@H]2O[C@H](C)[C@@H](O)[C@H](N)[C@@H]2O)C[C@@H]2O[C@](O)(C[C@@H](O)C[C@@H](O)[C@H](O)CC[C@@H](O)C[C@@H](O)CC(=O)O[C@H]1C)C[C@H](O)[C@H]2C(=O)O` [amphotericin B®, amphotericin B], the IC50 amastigote in series [1] is on record as 1.20 µg/mL (≈ 1.3 µM).

For “meglumine antimoniate [Glucantime®, reference compound]”, the IC50 is 374.7 ± 0.64 µM in [2] (24 h); 372.6 ± 1.75 µM in series [2] (48 h); 427.8 ± 1.32 µM in series [2] (72 h); 294.6 ± 0.38 µM in series [4] (24 h); 317.2 ± 1.75 µM in series [4] (48 h); 391 ± 1.38 µM in [4] (72 h). Further, the IC50 was found to be 57.1 ± 0.77 µM in series [6] (24 h); 279.2 ± 1.95 µM in series [6] (48 h); 318.7 ± 1.48 µM in series [6] (72 h); 292.1 ± 2.4 µM in series [7] (24 h); 343.1 ± 2.37 µM in [7] (48 h); 435.6 ± 3.03 µM in series [7] (72 h). Moreover, the IC50 in [8] (24 h) stood at 286.6 ± 1.28 µM; in series [8] (48 h), 376.5 ± 2.74 µM; in series [8] (72 h) it was 453.7 ± 3.18 µM; in [10] (24 h) it was 48.2 ± 0.77 µM; in series [10] (48 h) it was 70.2 ± 1.62 µM; in series [10] (72 h), 101 ± 1.02 µM. Further, the “Viable parasites in cultures of lesion fragments (NNN medium)” value in series [3] is recorded as “presence of viable parasites”; in series [5], “Viable parasites were observed”. Further, the CC50 was found to be 149 ± 1.52 µM in the series on human monocytes (24 h); 255 ± 2.74 µM in the series with human monocytes (48 h); 398.4 ± 1.18 µM in the series on human monocytes (72 h); 179 ± 0.23 µM in series [9] (24 h); 205.2 ± 1.25 µM in [9] (48 h); 212 ± 2.48 µM in series [9] (72 h). Also, the Clinical cure result in series [5] (30 days of treatment) is recorded as “no clinical cure was obtained”. For the same molecule, the “Lesion volume (in words)” value in [5] (gel topically 0.3 mg/day once a day, Glucantime IM 3 mg (Sb5)/kg/day, 30 days, Ag2 effect after the 14th day) is on record as “reduction in lesion volume”.

For orientation: IC50 means the concentration that inhibits the measured activity by half. By CC50 is commonly meant the concentration giving 50% cytotoxicity. Low values mean greater toxicity to the cells, high ones lower toxicity to the cells.
